What was measured:
[1] = test system: human lung cancer cells A549; experiment: Proliferation (cell density) of A549 tumor cells in culture; assay type: cell-based; conditions: FIG. 4A
Excerpt: (§1) The presence of 2-hydroxyoleic acid and/or its analogs in the cells induces activation of the signal pathway associated with p53, which induces the start of apoptosis or stopping of the cell cycle in various types of tumor cells. With the aim of carrying out the first objective of the present invention, in vitro and in vivo models were used.

[2] = test system: Jurkat cells of human leukemia; experiment: Proliferation (cell density) of Jurkat tumor cells in culture; assay type: cell-based; conditions: FIG. 4B
Excerpt: as §1

purified G-proteins = experiment: Activity of purified G-proteins in the absence of membrane; assay type: biochemical
Excerpt: (§2) This is because these molecules have an influence on the interaction of G-proteins with membranes and therefore on their cellular localization, as is shown in the photographs from confocal microscopy (FIG. 2). The effect of hydroxyoleic acid and its analogs on the localization and activity of G-proteins is not due to a direct interaction on them.
FIG. 6: Hydroxyoleic acid and its analogs had no effect on pure G-proteins (in the absence of membrane).

[3] = test system: human leukemia cells (Jurkat); experiment: Flow cytometry, number of live Jurkat cells; assay type: cell-based
Excerpt: (§3) Similar effects were produced by all the analogs tested that comply with the general structural formula given earlier. […] This antiproliferative effect was also observed using other techniques and other cell types: in rat primary astrocytes, these fatty acids have an antiproliferative effect, which I studied by incorporating tritiated thymidine. Moreover, hydroxyoleic acid and its analogs are able to induce apoptosis or programmed cell death in human cancer cells. […] Using flow cytometry experiments, it was established that in the presence of 2-hydroxyoleic acid the number of live human leukemia cells (Jurkat) was only 10% of those that remained alive with Etoposide, a known antitumor agent.

[4] = Body weight of rats in chronic treatment; assay type: in vivo; conditions: seventh day, Sprague-Dowley rat aged 2-3 months
Excerpt: Rats treated with these molecules lost body weight during chronic treatments (from 5 to 17 days). In these experiments, rats treated with 2-hydroxyoleic acid or its analogs, in particular aminoleic acid, had free access to food and water, in the same way as the control group of treated rats (FIG. 11). In these conditions there was a progressive decrease in the rats' body weight starting from the first day of treatment, up to 17 grams on the seventh day of treatment (5% of the normal body weight of a Sprague-Dowley rat aged 2-3 months). […] Similar experiments carried out on adult mice, for periods of up to 28 days with 2-hydroxyoleic acid, show reductions in body weight from 15% to 25%, relative to control mice (treated with vehicle).
The animals (Sprague-Dowley rats) had free access to food and water at any time.

[5] = test system: systolic arterial pressure; experiment: Blood pressure in Sprague-Dowley rats; assay type: in vivo; conditions: for systolic arterial pressure after acute treatment, in words: Sprague-Dowley rats, FIG. 10
Experimental: These reductions were of an acute form (at 2 hours of treatment, 19±6 mmHg, P<0.01, n=6) and of a chronic form (1 week, 26±7 mmHg, P<0.001, n=6).
Lower doses of this molecule (1-10 mg/kg) produced similar effects, but less marked. *P<0.01.

heart rate = experiment: Heart rate during hypotensive treatment; assay type: in vivo; conditions: FIGS. 9a, 9b and 10
Experimental: The hypotensive effect produced by 2-hydroxyoleic acid and its analogs is that it induces a reduction in blood pressure of an acute form (which is evident from 2 hours of treatment) and chronic (which is maintained for days and weeks while the treatment is maintained). Aminoleic acid, for example, reduces blood pressure by 15 mmHg in chronic treatments lasting a week. These fatty acids regulate communication between receptor, G-protein and effector. The result is a modulation of the signals of cyclic AMP, phospholipase C and nitric oxide, which gives rise to a reduction in blood pressure. This effect is also connected with regulation of the membrane structure. […] An additional advantage of these compounds is that they control other cardiovascular risk factors: the serum lipid/lipoprotein profile and body weight (see below).

[6] = Temperature of transition from lamellar to hexagonal structure (HII) of DEPE membranes, X-ray diffraction/scattering; conditions: for TH, lamellar-hexagonal transition of DEPE: phospholipid:analog 20:1 mol:mol, Table 2, control 61
Experimental: The control value (in the absence of 2-hydroxyoleic) is 63° C. […] This important modification of the cell membrane has important consequences for molecular and cellular function. All the analogs of 2-hydroxyoleic tested that have therapeutic activity also induce effects on the membrane structure (Table 2).
Using this technique, we established that the structure of the membrane is altered by 2-hydroxyoleic acid and its analogs. The lowering of the temperature of transition from lamellar to hexagonal structure indicates an important effect on rearrangement of the lipid molecules in the membrane. This regulation of rearrangement forms the basis of the effect exerted by 2-hydroxyoleic acid and its analogs.

Gαi2 protein = experiment: Cellular localization of fluorescein-labeled Gαi2 protein, confocal microscopy; assay type: cell-based; conditions: primary astrocytes of rat brain, FIG. 2
Excerpt: as §2
(§4) In this way, inhibition of cell proliferation is achieved, as was confirmed by the appreciable and significant increases in the levels of the protein p21 and the decreases in the cell cycle proteins cdk2 and cyclins B and D3 (FIGS. 3A and B). Moreover, it has been observed that in cells in culture, 2-hydroxyoleic acid and its analogs induce significant increases in protein kinase C (increase of between 40% and 120%).
In control cells, the labeling indicates the presence of this protein throughout the cell, especially in the nucleus (arrow).

G-proteins = experiment: Binding of [35S]GTPγS to membranes of NIH 3T3 cells transfected with the rat adrenoceptor α2A/D (activity of G-proteins); assay type: biochemical
Excerpt: Hydroxyoleic acid and related compounds are capable of modulating the activity of G-proteins, measured by the binding of [^35S] GTPγS (FIG. 5).
The analogs of 2-hydroxyoleic produce an effect similar to that of 2-hydroxyoleic acid.

[7] = test system: systolic arterial pressure; experiment: Blood pressure in humans; assay type: in vivo; conditions: 30 mg/kg, FIG. 9b
Excerpt: The days prior to treatment are shown with negative values. *P<0.05, **P<0.01.

[8] = test system: human lung cancer cells A549; experiment: Cell cycle proteins (cdk2, cyclin B, cyclin D3, p21) in A549 cells; assay type: cell-based
Excerpt: as §4, §3
Protein p21 inhibits the cell cycle, so it is an antiproliferative protein. […] The decrease in levels of this enzyme, or evidence of its degradation, indicate the start of apoptosis or programmed cell death. […]

[9] = test system: cerebral tumor metastases, formed from a lung adenocarcinoma; experiment: Brain metastases of lung adenocarcinoma in a patient; assay type: in vivo, human; conditions: previous chemotherapy and radiotherapy without effect
Excerpt: The antitumor efficacy of 2-hydroxyoleic acid and its […] is shown in FIG. 8, in which we can see the disappearance of some cerebral tumor metastases, formed from a lung adenocarcinoma, after treatment with 2-hydroxyoleic acid.
Regulation of the Activity of G-Proteins Controls Blood Pressure.
The image on the left (8a) corresponds to the tumors before treatment and those on the right (8b, 8c and 8d) correspond to the tumors after treatment with 2-hydroxyoleic on various dates.

[10] = test system: human leukemia cells (Jurkat); experiment: Degradation of poly-ADP ribose polymerase (PARP) in Jurkat cells; assay type: cell-based; conditions: Jurkat cells, 10, 100 and 1000 μM, FIG. 3C
Excerpt: as §3
Protein p21 inhibits the cell cycle, so it is an antiproliferative protein. […] The decrease in levels of this enzyme, or evidence of its degradation, indicate the start of apoptosis or programmed cell death. In these experiments Etoposide was used as the positive control, as this molecule is known to be an inducer of apoptosis and an antitumor agent.

## CCCCCCCC/C=C\CCCCCCC(O)C(=O)O (stereo not drawn) [2-hydroxyoleic acid, cis-2-hydroxy-9-octadecenoic acid]
[1]
  effect on proliferation of A549 cells: induce stoppage of division and the death of tumor cells
[2]
  effect on proliferation of Jurkat cells: induce stoppage of division and the death of tumor cells
Purified G-proteins; FIG. 6, listed as Hydroxyoleic acid
  influence on the activity of purified G-proteins: no effect
Purified G-proteins; FIG. 6, listed as hydroxyoleic
  influence on the activity of purified G-proteins: did not have an influence
[3]
  number of live Jurkat cells relative to those that remained alive with Etoposide: 10%
[4]
  decrease in body weight as share of normal body weight: 5%
[5]
  systolic arterial pressure after acute treatment, in words: significant decreases
[5]; acute and chronic treatments from 1 mg/kg to 10 mg/kg
  blood pressure at lower doses, in words: significant reductions
[5]; rats, 1 week, 3 daily injections of 30 mg/kg
  reduction of blood pressure, chronic: 26±7 mmHg
[5]; rats, at 2 hours of treatment, 30 mg/kg
  reduction of blood pressure, acute: 19±6 mmHg
Heart rate
  effect on heart rate: without altering the heart rate
[6]; DEPE:2OHOA 10:1 mol:mol
  TH, temperature of transition from lamellar to hexagonal structure: 41 °C
[6]; DEPE:2OHOA 20:1 mol:mol
  TH, temperature of transition from lamellar to hexagonal structure: 48 °C
[6]; DEPE:2OHOA 40:1 mol:mol
  TH, temperature of transition from lamellar to hexagonal structure: 54 °C
Gαi2 protein
  cellular localization of Gαi2 protein: in membrane and cytosol, but not in the nucleus
G-proteins; FIG. 5
  function of the G-proteins ([35S]GTPγS binding), in words: decrease in function of the G-proteins even greater than the anthracycline daunomycin
[7]
  blood pressure in humans, in words: significant, large decreases
[8]; FIG. 3A
  cell cycle proteins cdk2, cyclin B and cyclin D3: decrease
[8]; incubation for 24 and 48 hours, FIG. 3B
  p21 protein: large increases
[9]; FIG. 8
  effect on brain tumors (metastases) in a patient: complete disappearance of the cancer
[9]; FIG. 8, listed as 2-hydroxyoleic
  effect on brain tumors (metastases) in a patient: one of the tumors disappeared more quickly and the other one more slowly
[10]
  poly-ADP ribose polymerase (PARP) levels: degradation

## CCCCCCCC/C=C\CCCCCCC(N)C(=O)O (stereo not drawn) [Aminoleic acid, 2-amino-oleic (2-amino-cis-9-octadecenoic)acid]
[1]
  effect on proliferation of A549 cells: induce stoppage of division and the death of tumor cells
[2]
  effect on proliferation of Jurkat cells: induce stoppage of division and the death of tumor cells
[4]
  decrease in body weight as share of normal body weight: 5%
[5]; species not printed at the place
  reduction of blood pressure, chronic treatments lasting a week: 15 mmHg
[6]
  TH, lamellar-hexagonal transition of DEPE: 49 °C

## CCCCCCCC/C=C\CCCCCCC(C)C(=O)O (stereo not drawn) [Methyloleic acid, 2-methyl-oleic (2-methyl-cis-9-octadecenoic)acid]
[1]
  effect on proliferation of A549 cells: induce stoppage of division and the death of tumor cells
[2]
  effect on proliferation of Jurkat cells: induce stoppage of division and the death of tumor cells
[5]
  systolic arterial pressure after acute treatment, in words: significant decreases
[6]
  TH, lamellar-hexagonal transition of DEPE: 50 °C

## CCCCCCCC/C=C\CCCCCCCCCCCCCC(=O)O [Nervonic acid, nervonic (cis-15-tetracosenoic)acid]
[1]
  effect on proliferation of A549 cells: induce stoppage of division and the death of tumor cells
[2]
  effect on proliferation of Jurkat cells: induce stoppage of division and the death of tumor cells
[5]
  systolic arterial pressure after acute treatment, in words: significant decreases
[6]
  TH, lamellar-hexagonal transition of DEPE: 55 °C

## CCCCCCCC/C=C\CCCCCCCC(=O)O [Oleic acid, oleic (cis-9-octadecenoic)acid]
[1]
  effect on proliferation of A549 cells: induce stoppage of division and the death of tumor cells
[2]
  effect on proliferation of Jurkat cells: induce stoppage of division and the death of tumor cells
[5]
  systolic arterial pressure after acute treatment, in words: significant decreases
[6]
  TH, lamellar-hexagonal transition of DEPE: 45 °C
[9]; FIG. 8
  effect on brain tumors (metastases) in a patient: complete disappearance of the cancer

## CCCCCC/C=C\CCCCCCCCCC(=O)O [cis-Vaccenic acid, cis-vaccenic (cis-11-octadecenoic)acid]
[5]
  systolic arterial pressure after acute treatment, in words: significant decreases
[6]
  TH, lamellar-hexagonal transition of DEPE: 53 °C

## COc1cccc2c1C(=O)c1c(O)c3c(c(O)c1C2=O)C[C@@](O)(C(C)=O)C[C@@H]3O[C@H]1C[C@H](N)[C@H](O)[C@H](C)O1 [daunomycin, reference compound]
Purified G-proteins; FIG. 6
  influence on the activity of purified G-proteins: did not have an influence
Purified G-proteins; FIG. 6, listed as Daunomycin
  influence on the activity of purified G-proteins: behavior similar to the control
G-proteins; 200 μM, membranes of NIH 3T3 cells
  inhibition in the activity of G-proteins: 46%

## CCCCCC/C=C\CCCCCCCC(=O)O [palmitoleic acid, palmitoleic (cis-9-hexadecenoic)acid]
[1]
  effect on proliferation of A549 cells: induce stoppage of division and the death of tumor cells
[2]
  effect on proliferation of Jurkat cells: induce stoppage of division and the death of tumor cells
[5]
  systolic arterial pressure after acute treatment, in words: significant decreases

— patent US8778995B2, “Use of hydroxyoleic acid and related compounds in the manufacture of drugs” (Universitat de les Illies Balears, priority 2001, dated 2014)
